Data published in article PMC12111156, “Nitazoxanide Analogs: Synthesis, In Vitro Giardicidal Activity, and Effects on Giardia lamblia Metabolic Gene Expression” (International Journal of Molecular Sciences, 2025).

Key:
[1] = Cytotoxicity, XTT viability assay, Caco-2; details: human
Procedure: (§1) The cytotoxicity assay was performed to evaluate the effect of the selected compounds on human cells. Colon cells were used because they are cell lines like those present in the microenvironment where G. lamblia colonizes, which is the small intestine of the host. The assay was performed using the human cell lines Caco-2 (ATCC HTB-37) and HT-29 (ATCC […]). Cell viability was determined using the Cell Proliferation Kit II (XTT, St. Louis, MO, EE. UU.). A cell suspension of 2 × 10^3 cells/mL was prepared in Dulbecco’s modified Eagle’s medium (DMEM) supplemented with 10% inactivated fetal bovine serum and an antibiotic (1% penicillin/streptomycin, 5000 U/mL, in a volume of 100 µL). The suspension was added to a 96-well plate. The plates were incubated for 24 h at 37 °C in a 5% CO2 atmosphere. […] The cells were incubated for 48 h at 37 °C in a 5% CO2 atmosphere. Cell viability was determined using the following steps. The medium in each well was replaced with 100 µL of fresh medium, and 50 µL of XTT labeling mix was added per well. The reaction was incubated for four hours at 37 °C and 5% CO2. After incubation, the absorbance of the samples on the plate was measured at 450 nm. Each compound was assayed in triplicate in three independent experiments. CC50 values (μM) were determined using the nonlinear regression function of GraphPad Prism version 8 for Windows.

Caco-2 and HT-29 cells = assay: Cytotoxicity, XTT viability assay, stated for both cell lines; type: cell-based, human; details: 125 µM, 48 h
Procedure: The suspension was added to a 96-well plate. […] Cell viability was determined using the following steps.

[2] = test system: Giardia lamblia trophozoites (strain ATCC 30957) gene expression; assay: Gene expression in trophozoites by RT-qPCR; type: cell-based; details: IC50 of each compound, 48 h
Procedure: To determine the alterations in the parasite’s metabolism and cellular processes induced by the compounds, the expression levels of various genes encoding metabolic, structural, and oxidative stress response proteins were evaluated. G. lamblia strain ATCC 30957 was grown by following previously established culture parameters.
The culture tube was incubated on ice for 15 min and then centrifuged at 2000 rpm for 6 min to concentrate the cell pellet. Cell counting was performed using the trypan blue method. A 500 µL volume of Trizol ® was added, and it was gently homogenized; then, 60 µL of chloroform was added, and it was homogenized for 10 s with a vortex and incubated on ice for 3 min. Afterward, it was centrifuged at 12,000 rpm for 10 min, the aqueous phase was transferred to a new tube, 200 µL of isopropanol was added, and it was incubated for 3 h on ice. The sample was then centrifuged for 10 min at 12,000 rpm, and the supernatant was discarded. A 600 µL volume of ethanol (70%) was added, homogenized, and centrifuged. In the end, the supernatant was removed, and the sample was centrifuged again to dry the excess alcohol. The pellet was dried. Finally, it was resuspended in 25 µL of sterile MilliQ water. The concentration and purity of the extracted RNA were determined using the NanoDrop® Spectrophotometer ND-1000 (NanoDrop Technologies, Wilmington, DE, USA). […] RNA purity and integrity were confirmed using 0.8% (w/v) agarose gels under denaturing conditions.
The synthesis of cDNA was carried out with […] of purified RNA, and 1 U of […] was added (Thermo Thermo Fisher Scientific, Waltham, MA, USA). First-strand cDNA synthesis was carried out using 1 μg of DNase-treated RNA, combined with a 10 mM dNTP mix, oligo(dT)18 primer, and RevertAid reverse transcriptase (Thermo Scientific) in a final reaction volume of 20 μL. The reaction mixture was incubated at 42 °C for 60 min, followed by heat inactivation at 70 °C for 10 min. The synthesized cDNA was stored at −20 °C until further use. The level of purity and concentration of the cDNA were determined using the NanoDrop® Spectrophotometer ND-1000 (NanoDrop Technologies, Wilmington, DE, USA).
Specific oligonucleotides were designed to determine the expression levels of the gene’s phosphofructokinase, pyruvate kinase, glucose-6-phosphate dehydrogenase::6-phosphogluconolactonase, 6-phosphogluconate dehydrogenase, and transketolase. The design was based on gene sequences available in the National Center for Biotechnology Information (NCBI) database, adhering to the following criteria: an oligonucleotide length of 18–20 bp, a melting temperature (Tm) of 61 °C, a GC content of approximately 40%, and an amplicon size between 80 and 200 bp (Table 4). The oligonucleotides were synthesized by the Sequencing and Synthesis Unit of the Institute of Biotechnology, UNAM.
Additionally, previously reported primers that were used for the gene expression analysis of G. lamblia were also obtained (Table 4). These primers target genes encoding surface structural protein, giardin, actin, pyruvate:ferredoxin oxidoreductase, pyruvate phosphate dikinase, NADH oxidase, triose phosphate isomerase, glyceraldehyde-3-phosphate dehydrogenase, and Aldolase.
Amplification was performed using a StepOne™ Real-Time PCR System and the Fast SYBR® Green Master Mix kit (Applied Biosystems, Foster City, CA, USA) under the following conditions: an initial denaturation at 95 °C for 30 s, followed by 40 cycles of 95 °C for 3 s and 60 °C for 30 s. The melt curve analysis was conducted post-amplification by gradually increasing the temperature from 60 °C to 95 °C. […] Normalization was performed using the geometric mean of cycle threshold (Ct) values, and the relative expression levels of the target genes were calculated using the 2^−ΔΔCt method. Each reaction was performed in five replicates for all analyzed genes and strains. Results are presented as mean values ± standard deviation (SD).

G. lamblia trophozoites = assay: Cell damage by transmission electron microscopy; type: cell-based, Giardia lamblia; details: IC50 concentration, 24 h
Procedure: The trophozoites were incubated for 24 h at 37 °C and then collected by cooling them in an ice bath for 10 min and centrifuging at 2000 rpm for 7 min. The samples were sent for preparation and observation at the Instituto de Fisiología Celular, UNAM. The analysis was performed using a JEOL-JEM-1200 transmission electron microscope (JEOL LTD, Tokyo, Japan) equipped with a GATAN CCD camera at the Imaging Unit of the Institute of Cellular Physiology, UNAM.

HT-29 cells = assay: Cytotoxicity, XTT viability assay, HT-29; details: CC50 HT-29 / IC50 trophozoite ATCC strain 30957
Procedure: as §1

[3] = Cytotoxicity, XTT viability assay, HT-29; details: human, HT-29 cells, CC50 HT-29, 48 h, XTT
Procedure: as §1

## CCCCC(=O)Nc1ncc([N+](=O)[O-])s1 [FLP-2, N-(5-Nitro-1,3-thiazol-2-yl)pentanamide]
[1]; Caco-2
  selectivity ratio at 48 h: 884
[1]; Caco-2, CC50 Caco-2, 48 h, XTT
  CC50 at 48 h: 3180 µM
Caco-2 and HT-29 cells
  Decrease of cell viability: up to 20%
[2]
  6PGDH gene expression vs control: differential overexpression
  ACT (actin) gene expression, decrease vs control: 10 times
  G6PD::6PGL gene expression vs control: 117.4 fold change
  GAPDH gene expression vs control: 18.3 fold change
  GIA (giardin) gene expression, increase vs control: 20.1 times
  NADHox gene expression, increase vs control: lower
  PFK gene expression vs control: reduction
  PFOR gene expression vs control: 16 fold change
  PPDK gene expression vs control: 21.8 fold change
  TKT gene expression, increase vs control: 45.1 times
  VSP gene expression, increase vs control: 47.8 times
G. lamblia trophozoites
  Ultrastructural effect on trophozoites (TEM): significant morphological alterations
HT-29 cells
  Selectivity index (CC50/IC50) HT-29: 531
[3]
  CC50 at 48 h: 1910 µM
